Measurements published in patent US12378243B2, “Quinoline compounds as inhibitors of KRAS” (Incyte Corporation, priority 2021, dated 2025).

What was measured:
KRAS G12D = KRAS G12D (Homo sapiens, UniProt P01116, G12D); assay: GDP-GTP exchange assay, KRAS G12D; assay type: biochemical; conditions: bodipy-loaded KRAS G12D 2.5 nM, GppNHp 500 uM, SOS1 150 nM; 4 hours pre-incubation, 2 hours incubation; read-out: G12D_exchange
Procedure: Inhibitors were serially diluted in DMSO and a volume of 0.1 μL was transferred to the wells of a black low volume 384-well plate. […] The exchange was initiated by the addition of a 5 μL/well volume containing 1 mM GppNHp and 300 nM SOS1 in assay buffer. […] The reaction plates were incubated at ambient temperature for 2 hours, a time estimated for complete GDP-GTP exchange in the absence of inhibitor.
Either GraphPad prism or Genedata Screener SmartFit was used to analyze the data. The IC50 values were derived by fitting the data to a four parameter logistic equation producing a sigmoidal dose-response curve with a variable Hill coefficient.
“NA” indicates IC50 not available.

KRAS G12V mutant = KRAS G12V mutant (Homo sapiens, UniProt P01116, G12V); assay: GDP-GTP exchange assay, KRAS G12V; assay type: biochemical; conditions: bodipy loaded KRAS G12V 2.5 nM; 3 hours incubation after adding GppNHp-SOS1 mixture; read-out: G12V_exchange
Chain of KRAS G12V mutant (P01116 1-188 isoform P01116-2 G12V): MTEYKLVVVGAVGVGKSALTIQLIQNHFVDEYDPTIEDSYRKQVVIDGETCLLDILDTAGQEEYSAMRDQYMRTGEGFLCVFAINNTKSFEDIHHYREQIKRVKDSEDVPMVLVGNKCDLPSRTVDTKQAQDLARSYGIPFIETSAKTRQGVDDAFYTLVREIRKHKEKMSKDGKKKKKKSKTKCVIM

Caco-2 cells = assay: Caco2 assay (permeability, A-B); assay type: in vitro ADME; conditions: Papp absorptive direction (A-B), test compound 50 μM, 120 minutes at 37° C.
Procedure: Caco-2 cells are grown at 37° C. in an atmosphere of 5% CO2 in DMEM growth medium supplemented with 10% (v/v) fetal bovine serum, 1% (v/v) nonessential amino acids, penicillin (100 U/mL), and streptomycin (100 μg/mL). Confluent cell monolayers are subcultured every 7 days or 4 days for Caco-2 by treatment with 0.05% trypsin containing […]. Caco-2 cells are seeded in 96-well Transwell plates. The seeding density for Caco-2 cells is 14,000 cells/well. DMEM growth medium is replaced every other day after seeding. Cell monolayers are used for transport assays between 22 and 25 days for Caco-2 cells.
Cell culture medium is removed and replaced with HBSS. To measure the TEER, the HBSS is added into the donor compartment (apical side) and receiver compartment (basolateral side). The TEER is measured by using a REMS Autosampler to ensure the integrity of the cell monolayers. Caco-2 cell monolayers with TEER values ≥300 Ω·cm^2 are used for transport experiments. To determine the Papp in the absorptive direction (A-B), solution of test compound (50 μM) in HBSS is added to the donor compartment (apical side), while HBSS solution with 4% BSA is added to the receiver compartment (basolateral side). The apical volume was 0.075 mL, and the basolateral volume is 0.25 mL. The incubation period is 120 minutes at 37° C. in an atmosphere of 5% CO2. At the end of the incubation period, samples from the donor and receiver sides are removed and an equal volume of acetonitrile is added for protein precipitation. The supernatants are collected after centrifugation (3000 rpm, Allegra X-14R Centrifuge from Beckman Coulter, Indianapolis, IN) for LCMS analysis. The permeability value is determined according to the equation:
[formula] • where the flux rate (F, mass/time) is calculated from the slope of cumulative amounts of compound of interest on the receiver side, SA is the surface area of the cell membrane, VD is the donor volume, and MD is the initial amount of the solution in the donor chamber.
The symbol “+” indicates a Caco-2 value of […], “++” indicates a Caco-2 value of >0.5 but ≤1; and “+++” indicates a Caco-2 value of >1. “NA” indicates IC50 not available.

Chain of KRAS G12D (P01116 1-188 isoform P01116-2 G12D): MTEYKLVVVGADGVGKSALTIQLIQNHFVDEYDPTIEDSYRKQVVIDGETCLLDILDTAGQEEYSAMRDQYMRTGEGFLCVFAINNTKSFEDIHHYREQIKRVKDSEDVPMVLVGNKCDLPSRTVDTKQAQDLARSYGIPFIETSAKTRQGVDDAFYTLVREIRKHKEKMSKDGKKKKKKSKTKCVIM

Question: Which IC50 (KRAS G12D) does the source give for Cc1cc2c(O[C@@H](C)[C@@H]3CCCN3C)nc3c(F)c(-c4c[nH]c5c(F)cc(F)cc45)c(CCC#N)cc3c2n1[C@H]1[C@H]2CN[C@@H]1C2 [Example 2, 3-(1-((1R,4R,5S)-2-Azabicyclo[2.1.1]hexan-5-yl)-7-(5,7-difluoro-1H-indol-3-yl)-6-fluoro-2-methyl-4-((S)-1-((S)-1-methylpyrrolidin-2-yl)ethoxy)-1H-pyrrolo[3,2-c]quinolin-8-yl)propanenitrile] here?
Answer: Its IC50 is less than 100 nM.

Question: And the IC50 (KRAS G12V mutant)?
Answer: Its IC50 is less than 100 nM.

Question: What about the Caco-2 (Caco-2 cells; Table 3) of the same molecule?
Answer: The Caco-2 was “+ (a Caco-2 value of 50.5)”.

Question: For Cc1cc2c(-c3c(CCC#N)cc4c(nc(O[C@@H](C)[C@@H]5CCCN5C)c5cc(C)n([C@H]6[C@H]7CN[C@@H]6C7)c54)c3F)c[nH]c2cc1F [Example 3, 3-(1-((1R,4R,5S)-2-Azabicyclo[2.1.1]hexan-5-yl)-6-fluoro-7-(6-fluoro-5-methyl-1H-indol-3-yl)-2-methyl-4-((S)-1-((S)-1-methylpyrrolidin-2-yl)ethoxy)-1H-pyrrolo[3,2-c]quinolin-8-yl)propanenitrile], which IC50 (KRAS G12D) is on record?
Answer: The IC50 was less than 100 nM.

Question: And the IC50 (KRAS G12V mutant)?
Answer: Its IC50 is less than 100 nM.

Question: What about the Caco-2 (Caco-2 cells; Table 3) of the same molecule?
Answer: Its Caco-2 is “+ (a Caco-2 value of 50.5)”.

Question: What does the source list for C[C@H](Oc1nc2c(F)c(-c3cccc(Cl)c3Cl)c(CCC#N)cc2c2c1cc(CCC(=O)N1CCC1)n2[C@H]1[C@H]2CN[C@@H]1C2)[C@@H]1CCCN1C [Example 4, 3-(2-(3-(Azetidin-1-yl)-3-oxopropyl)-1-((1R,4R,5S)-2-azabicyclo[2.1.1]hexan-5-yl)-7-(2,3-dichlorophenyl)-6-fluoro-4-((S)-1-((S)-1-methylpyrrolidin-2-yl)ethoxy)-1H-pyrrolo[3,2-c]quinolin-8-yl)propanenitrile]?
Answer: IC50 (KRAS G12D): < 100 nM; IC50 (KRAS G12V mutant): < 100 nM; Caco-2 (Caco-2 cells; Table 3): + (a Caco-2 value of 50.5)

Question: Which IC50 (KRAS G12D) does the source give for Cc1cc2c(nc(O[C@@H](C)[C@@H]3CCCN3C)c3cc(CN4CCOC4=O)n([C@H]4[C@H]5CN[C@@H]4C5)c32)c(F)c1-c1cc(O)cc2ccccc12 [Example 5, 3-((1-((1R,4R,5S)-2-Azabicyclo[2.1.1]hexan-5-yl)-6-fluoro-7-(3-hydroxynaphthalen-1-yl)-8-methyl-4-((S)-1-((S)-1-methylpyrrolidin-2-yl)ethoxy)-1H-pyrrolo[3,2-c]quinolin-2-yl)methyl)oxazolidin-2-one] here?
Answer: The IC50 was less than 100 nM.

Question: And the IC50 (KRAS G12V mutant)?
Answer: Its IC50 is less than 100 nM.

Question: And the Caco-2 (Caco-2 cells; Table 3)?
Answer: Its Caco-2 is “+ (a Caco-2 value of 50.5)”.

Question: What does the source list for Cc1cc2c(nc(O[C@@H](C)[C@@H]3CCCN3C)c3cc(C)n([C@H]4[C@H]5CN[C@@H]4C5)c32)c(F)c1-c1cccc2cccc(C#N)c12 [Example 6, 8-(1-((1R,4R,5S)-2-Azabicyclo[2.1.1]hexan-5-yl)-6-fluoro-2,8-dimethyl-4-((S)-1-((S)-1-methylpyrrolidin-2-yl)ethoxy)-1H-pyrrolo[3,2-c]quinolin-7-yl)-1-naphthonitrile]?
Answer: IC50 (KRAS G12D): < 100 nM; IC50 (KRAS G12V mutant): < 100 nM; Caco-2 (Caco-2 cells; Table 3): ++ (a Caco-2 value of >0.5 but ≤1)

Question: What does the source list for Cc1nc2c(F)c(-c3cccc4ccc(F)cc34)c(CCC#N)cc2c2c1cc(CN1CCN(C)CC1=O)n2[C@H]1[C@H]2CN[C@@H]1C2 [Example 15, 3-(1-((1R,4R,5S)-2-Azabicyclo[2.1.1]hexan-5-yl)-6-fluoro-7-(7-fluoronaphthalen-1-yl)-4-methyl-2-((4-methyl-2-oxopiperazin-1-yl)methyl)-1H-pyrrolo[3,2-c]quinolin-8-yl)propanenitrile]?
Answer: IC50 (KRAS G12D): < 100 nM; IC50 (KRAS G12V mutant): 100 to 1000 nM; Caco-2 (Caco-2 cells; Table 3): ++ (a Caco-2 value of >0.5 but ≤1)

Question: For CCOc1nc2c(F)c(-c3cc(O)cc(Cl)c3Cl)c(CCC#N)cc2c2c1cc(CN1CCN(C(C)C)CC1=O)n2[C@H]1[C@H]2CN[C@@H]1C2 [Example 16, 3-(1-((1R,4R,5S)-2-azabicyclo[2.1.1]hexan-5-yl)-7-(2,3-dichloro-5-hydroxyphenyl)-4-ethoxy-6-fluoro-2-((4-isopropyl-2-oxopiperazin-1-yl)methyl)-1H-pyrrolo[3,2-c]quinolin-8-yl)propanenitrile], which IC50 (KRAS G12D) is on record?
Answer: The IC50 was less than 100 nM.

Question: And the IC50 (KRAS G12V mutant)?
Answer: Its IC50 is less than 100 nM.

Question: And the Caco-2 (Caco-2 cells; Table 3)?
Answer: The Caco-2 was “+ (a Caco-2 value of 50.5)”.

Question: How did the IC50 (KRAS G12D) turn out when CN(C)C1(C)CN(c2nc3c(F)c(-c4cccc5ccc(F)cc45)c(CCC#N)cc3c3c2cc(CN2CCOCC2=O)n3[C@H]2[C@H]3CN[C@@H]2C3)C1 [Example 17, 3-(1-((1R,4R,5S)-2-Azabicyclo[2.1.1]hexan-5-yl)-4-(3-(dimethylamino)-3-methylazetidin-1-yl)-6-fluoro-7-(7-fluoronaphthalen-1-yl)-2-((3-oxomorpholino)methyl)-1H-pyrrolo[3,2-c]quinolin-8-yl)propanenitrile] was run?
Answer: The IC50 was less than 100 nM.

Question: And the IC50 (KRAS G12V mutant)?
Answer: The IC50 was less than 100 nM.

Question: What about the Caco-2 (Caco-2 cells; Table 3) of the same molecule?
Answer: Its Caco-2 is “+ (a Caco-2 value of 50.5)”.

Question: What does the source list for CCOc1nc2c(F)c(-c3cc(O)cc4ccccc34)c(CCC#N)cc2c2c1cc(C(C)N1CCOCC1=O)n2[C@H]1[C@H]2CN[C@@H]1C2 (stereo partly drawn) [Example 18, 3-(1-((1R,4R,5S)-2-azabicyclo[2.1.1]hexan-5-yl)-4-ethoxy-6-fluoro-7-(3-hydroxynaphthalen-1-yl)-2-(1-(3-oxomorpholino)ethyl)-1H-pyrrolo[3,2-c]quinolin-8-yl)propanenitrile]?
Answer: IC50 (KRAS G12D): < 100 nM; IC50 (KRAS G12V mutant): < 100 nM; Caco-2 (Caco-2 cells; Table 3): + (a Caco-2 value of 50.5)

Question: Which results are given for C[C@H](Oc1nc2c(F)c(-c3cc(O)cc4ccccc34)c(CCC#N)cc2c2c1cc(-c1cccnc1)n2C1C2CNC1C2)[C@@H]1CCCN1C (stereo partly drawn) [Example 19, 3-(1-((endo)-2-Azabicyclo[2.1.1]hexan-5-yl)-6-fluoro-7-(3-hydroxynaphthalen-1-yl)-4-((S)-1-((S)-1-methylpyrrolidin-2-yl)ethoxy)-2-(pyridin-3-yl)-1H-pyrrolo[3,2-c]quinolin-8-yl)propanenitrile]?
Answer: IC50 (KRAS G12D): < 100 nM; IC50 (KRAS G12V mutant): < 100 nM; Caco-2 (Caco-2 cells; Table 3): + (a Caco-2 value of 50.5)

Question: With CC(=O)N1CC[C@H](n2ncc3c(O[C@@H](C)[C@@H]4CCCN4C)nc4c(F)c(-c5cccc6cccc(C#N)c56)c(Cl)cc4c32)C[C@H]1CC#N [Example 25, 8-(1-((2S,4S)-1-acetyl-2-(cyanomethyl)piperidin-4-yl)-8-chloro-6-fluoro-4-((S)-1-((S)-1-methylpyrrolidin-2-yl)ethoxy)-1H-pyrazolo[4,3-c]quinolin-7-yl)-1-naphthonitrile] as the molecule, how does the IC50 (KRAS G12D) read?
Answer: Its IC50 is less than 100 nM.

Question: What about the IC50 (KRAS G12V mutant) of the same molecule?
Answer: The IC50 was less than 100 nM.

Question: What about the Caco-2 (Caco-2 cells; Table 3) of the same molecule?
Answer: Its Caco-2 is “+++ (a Caco-2 value of >1)”.

Question: For Cc1cc2c(-n3cncn3)nc3c(F)c(-c4cc(O)cc5ccc(F)cc45)c(CCC#N)cc3c2n1[C@H]1[C@H]2CN[C@@H]1C2 [Example 26, 3-(1-((1R,4R,5S)-2-Azabicyclo[2.1.1]hexan-5-yl)-6-fluoro-7-(7-fluoro-3-hydroxynaphthalen-1-yl)-2-methyl-4-(1H-1,2,4-triazol-1-yl)-1H-pyrrolo[3,2-c]quinolin-8-yl)propanenitrile], which IC50 (KRAS G12D) is on record?
Answer: The IC50 was less than 100 nM.

Question: And the IC50 (KRAS G12V mutant)?
Answer: Its IC50 is less than 100 nM.

Question: And the Caco-2 (Caco-2 cells; Table 3)?
Answer: The Caco-2 was “+ (a Caco-2 value of 50.5)”.

Question: With Cc1cc2c(O[C@@H](C)[C@@H]3CCCN3C)nc3c(F)c(-c4cccc5ccc(F)cc45)c(CCC#N)cc3c2n1[C@H]1[C@H]2CN[C@@H]1C2 [Example 27, 3-(1-((1R,4R,5S)-2-Azabicyclo[2.1.1]hexan-5-yl)-6-fluoro-7-(7-fluoronaphthalen-1-yl)-2-methyl-4-((S)-1-((S)-1-methylpyrrolidin-2-yl)ethoxy)-1H-pyrrolo[3,2-c]quinolin-8-yl)propanenitrile] as the molecule, how does the IC50 (KRAS G12D) read?
Answer: The IC50 was less than 100 nM.

Question: What about the IC50 (KRAS G12V mutant) of the same molecule?
Answer: Its IC50 is less than 100 nM.

Question: What about the Caco-2 (Caco-2 cells; Table 3) of the same molecule?
Answer: Its Caco-2 is “+ (a Caco-2 value of 50.5)”.

Question: CN(C)C(=O)N1CCC[C@@H]1c1cc2c(-n3cncn3)nc3c(F)c(-c4cccc(Cl)c4Cl)c(CCC#N)cc3c2n1[C@H]1[C@H]2CN[C@@H]1C2 [Example 28, (2R)-2-(1-((1R,4R,5S)-2-azabicyclo[2.1.1]hexan-5-yl)-8-(2-cyanoethyl)-7-(2,3-dichlorophenyl)-6-fluoro-4-(1H-1,2,4-triazol-1-yl)-1H-pyrrolo[3,2-c]quinolin-2-yl)-N,N-dimethylpyrrolidine-1-carboxamide] was tested. Which IC50 (KRAS G12D) did it give?
Answer: The IC50 was less than 100 nM.

Question: What about the IC50 (KRAS G12V mutant) of the same molecule?
Answer: The IC50 was 100 to 1000 nM.

Question: What about the Caco-2 (Caco-2 cells; Table 4) of the same molecule?
Answer: The Caco-2 was “+++ (a Caco-2 value of >1)”.
